From PubChem BioAssay (NCI)
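Step 1: Grow cells in 96-well plates. Step 2: Expose to compound for 48 hours at 5 concentrations. Step 3: Interpolate endpoints linearly; if unreached, use highest concentration. TGI is the concentration that stops growth completely.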

Key:
Assay in all cases: NCI anticancer screen, dose series, 48 h
SF-268 CNS = system: SF-268 CNS
SNB-75 CNS = system: SNB-75 CNS
SF-295 CNS = system: SF-295 CNS
MDA-MB-231 breast = system: MDA-MB-231 breast
HCT-116 colon = system: HCT-116 colon
COLO 205 colon = system: COLO 205 colon
MOLT-4 leukemia = system: MOLT-4 leukemia
HL-60(TB) leukemia = system: HL-60(TB) leukemia
U251 CNS = system: U251 CNS
NCI-H522 lung = system: NCI-H522 lung
A498 renal = system: A498 renal
786-0 renal = system: 786-0 renal
LOX IMVI melanoma = system: LOX IMVI melanoma
SK-OV-3 ovarian = system: SK-OV-3 ovarian
OVCAR-4 ovarian = system: OVCAR-4 ovarian
SNB-19 CNS = system: SNB-19 CNS
UO-31 renal = system: UO-31 renal
UACC-257 melanoma = system: UACC-257 melanoma
NCI-H460 lung = system: NCI-H460 lung
SW-620 colon = system: SW-620 colon
MDA-MB-435 = system: MDA-MB-435
MDA-N = system: MDA-N
SF-539 CNS = system: SF-539 CNS
HS 578T breast = system: HS 578T breast
ACHN renal = system: ACHN renal
CAKI-1 renal = system: CAKI-1 renal
K-562 leukemia = system: K-562 leukemia
NCI-H23 lung = system: NCI-H23 lung
SK-MEL-5 melanoma = system: SK-MEL-5 melanoma
TK-10 renal = system: TK-10 renal
SK-MEL-28 melanoma = system: SK-MEL-28 melanoma
CCRF-CEM leukemia = system: CCRF-CEM leukemia
A549 NSCLC = system: A549 NSCLC
HCC-2998 colon = system: HCC-2998 colon
NCI-H226 lung = system: NCI-H226 lung
EKVX NSCLC = system: EKVX NSCLC
OVCAR-3 ovarian = system: OVCAR-3 ovarian
KM12 colon = system: KM12 colon
BT-549 breast = system: BT-549 breast
HOP-92 NSCLC = system: HOP-92 NSCLC
NCI/ADR-RES ovarian = system: NCI/ADR-RES ovarian
PC-3 prostate = system: PC-3 prostate
HOP-62 NSCLC = system: HOP-62 NSCLC
HT29 colon = system: HT29 colon
HCT-15 colon = system: HCT-15 colon
SR leukemia = system: SR leukemia
SN12C renal = system: SN12C renal
MALME-3M melanoma = system: MALME-3M melanoma
RPMI-8226 leukemia = system: RPMI-8226 leukemia
RXF 393 renal = system: RXF 393 renal
UACC-62 melanoma = system: UACC-62 melanoma
DU-145 prostate = system: DU-145 prostate
OVCAR-5 ovarian = system: OVCAR-5 ovarian
T-47D breast = system: T-47D breast
MCF7 breast = system: MCF7 breast
M14 melanoma = system: M14 melanoma
IGROV1 ovarian = system: IGROV1 ovarian
OVCAR-8 ovarian = system: OVCAR-8 ovarian
SK-MEL-2 melanoma = system: SK-MEL-2 melanoma

## N#Cc1c(O)c(C=Nc2ccc(Cl)cc2)c(=O)n2c1[nH]c1ccccc12
SF-268 CNS
  TGI: > 100 µM
SNB-75 CNS
  TGI: > 100 µM
SF-295 CNS
  TGI: > 100 µM
MDA-MB-231 breast
  TGI: > 100 µM
HCT-116 colon
  TGI: > 100 µM
COLO 205 colon
  TGI: > 100 µM
MOLT-4 leukemia
  TGI: > 100 µM
HL-60(TB) leukemia
  TGI: > 100 µM
U251 CNS
  TGI: > 100 µM
NCI-H522 lung
  TGI: > 100 µM
A498 renal
  TGI: > 100 µM
786-0 renal
  TGI: > 100 µM
LOX IMVI melanoma
  TGI: > 100 µM
SK-OV-3 ovarian
  TGI: > 100 µM
OVCAR-4 ovarian
  TGI: > 100 µM
SNB-19 CNS
  TGI: > 100 µM
UO-31 renal
  TGI: > 100 µM
UACC-257 melanoma
  TGI: > 100 µM
NCI-H460 lung
  TGI: > 100 µM
SW-620 colon
  TGI: > 100 µM
MDA-MB-435
  TGI: > 100 µM
MDA-N
  TGI: > 100 µM
SF-539 CNS
  TGI: > 100 µM
HS 578T breast
  TGI: > 100 µM
ACHN renal
  TGI: > 100 µM
CAKI-1 renal
  TGI: > 100 µM
K-562 leukemia
  TGI: > 100 µM
NCI-H23 lung
  TGI: > 100 µM
SK-MEL-5 melanoma
  TGI: > 100 µM
TK-10 renal
  TGI: > 100 µM
SK-MEL-28 melanoma
  TGI: > 100 µM
CCRF-CEM leukemia
  TGI: > 100 µM
A549 NSCLC
  TGI: > 100 µM
HCC-2998 colon
  TGI: > 100 µM
NCI-H226 lung
  TGI: > 100 µM
EKVX NSCLC
  TGI: > 100 µM
OVCAR-3 ovarian
  TGI: > 100 µM
KM12 colon
  TGI: > 100 µM
BT-549 breast
  TGI: > 100 µM
HOP-92 NSCLC
  TGI: > 100 µM
NCI/ADR-RES ovarian
  TGI: > 100 µM
PC-3 prostate
  TGI: > 100 µM
HOP-62 NSCLC
  TGI: > 100 µM
HT29 colon
  TGI: > 100 µM
HCT-15 colon
  TGI: > 100 µM
SR leukemia
  TGI: > 100 µM
SN12C renal
  TGI: > 100 µM
MALME-3M melanoma
  TGI: > 100 µM
RPMI-8226 leukemia
  TGI: > 100 µM
RXF 393 renal
  TGI: > 100 µM
UACC-62 melanoma
  TGI: > 100 µM
DU-145 prostate
  TGI: > 100 µM
OVCAR-5 ovarian
  TGI: > 100 µM
T-47D breast
  TGI: > 100 µM
MCF7 breast
  TGI: > 100 µM
M14 melanoma
  TGI: > 100 µM
IGROV1 ovarian
  TGI: > 100 µM
OVCAR-8 ovarian
  TGI: > 100 µM
SK-MEL-2 melanoma
  TGI: > 100 µM

## CN(C)CCCNc1c2c(nc3ccc(Cl)cc13)CCCC2
SF-268 CNS
  TGI: 28.6 µM
SNB-75 CNS
  TGI: 30.8 µM
SF-295 CNS
  TGI: 29.7 µM
MDA-MB-231 breast
  TGI: 31.2 µM
HCT-116 colon
  TGI: 21.5 µM
COLO 205 colon
  TGI: 21.5 µM
MOLT-4 leukemia
  TGI: 20.8 µM
HL-60(TB) leukemia
  TGI: 40.1 µM
U251 CNS
  TGI: 30.1 µM
NCI-H522 lung
  TGI: 26.8 µM
A498 renal
  TGI: 32.6 µM
786-0 renal
  TGI: 23.1 µM
LOX IMVI melanoma
  TGI: 27.3 µM
SK-OV-3 ovarian
  TGI: 66.2 µM
OVCAR-4 ovarian
  TGI: 43.8 µM
SNB-19 CNS
  TGI: 49.4 µM
UO-31 renal
  TGI: 28 µM
UACC-257 melanoma
  TGI: 30.7 µM
NCI-H460 lung
  TGI: 23.9 µM
SW-620 colon
  TGI: 31.8 µM
MDA-MB-435
  TGI: 32.3 µM
MDA-N
  TGI: 26.9 µM
SF-539 CNS
  TGI: 28.5 µM
HS 578T breast
  TGI: 40.6 µM
ACHN renal
  TGI: 45.5 µM
CAKI-1 renal
  TGI: 65.4 µM
K-562 leukemia
  TGI: 12 µM
NCI-H23 lung
  TGI: 30.6 µM
SK-MEL-5 melanoma
  TGI: 27.8 µM
TK-10 renal
  TGI: 36.4 µM
SK-MEL-28 melanoma
  TGI: 35.3 µM
CCRF-CEM leukemia
  TGI: 43.7 µM
A549 NSCLC
  TGI: 39.6 µM
HCC-2998 colon
  TGI: 16.3 µM
NCI-H226 lung
  TGI: 49.7 µM
EKVX NSCLC
  TGI: 38.3 µM
OVCAR-3 ovarian
  TGI: 34.9 µM
KM12 colon
  TGI: 30.8 µM
BT-549 breast
  TGI: 43.7 µM
HOP-92 NSCLC
  TGI: 27.8 µM
NCI/ADR-RES ovarian
  TGI: 45 µM
PC-3 prostate
  TGI: 32.8 µM
HOP-62 NSCLC
  TGI: 30.5 µM
HT29 colon
  TGI: 23.2 µM
HCT-15 colon
  TGI: 32.4 µM
SR leukemia
  TGI: 6.88 µM
SN12C renal
  TGI: 28.9 µM
MALME-3M melanoma
  TGI: 29.7 µM
RPMI-8226 leukemia
  TGI: 28.7 µM
RXF 393 renal
  TGI: 28.6 µM
UACC-62 melanoma
  TGI: 32.1 µM
DU-145 prostate
  TGI: 31.9 µM
OVCAR-5 ovarian
  TGI: 49 µM
T-47D breast
  TGI: > 73 µM
MCF7 breast
  TGI: 25.5 µM
M14 melanoma
  TGI: 28.1 µM
IGROV1 ovarian
  TGI: 37.5 µM
OVCAR-8 ovarian
  TGI: 32.9 µM
SK-MEL-2 melanoma
  TGI: 34.5 µM
